From the supplement of paper PMC10307832

Tests used:
Test in all cases: relative viability (nuclei count vs DMSO), 5 days (fraction); higher = more cells survive
[1] = compound: CCN(CCO)CCCC(C)Nc1ccnc2cc(Cl)ccc12 [Hydroxychloroquine] + COc1cccc2cc(-c3nc([C@H]4CC[C@H](C(=O)O)CC4)n4ncnc(N)c34)[nH]c12 [OSI-027] (partner 0.5 µM)
How it was run: (§1)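 Nuclei were stained with Hoechst during a one-step fixation (final 0.05% Triton X-100, 1% formaldehyde, 1 ug/ml Hoechst) carried out 5 days after dosing, then counted on 4× images. The cells, lung cancer lines in 1536-well plates, had been dosed by pin tool the day after seeding with one drug alone or a fixed anchor-drug dose plus five library-drug doses (not always all listed) in √10 steps. Relative viability is the nuclei count in treated wells divided by that in vehicle wells, and each value is the median of duplicate plates.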

[2] = compound: CCN(CCO)CCCC(C)Nc1ccnc2cc(Cl)ccc12 [Hydroxychloroquine] + CS(=O)(=O)CCNCc1ccc(-c2ccc3ncnc(Nc4ccc(OCc5cccc(F)c5)c(Cl)c4)c3c2)o1 [Lapatinib] (partner 2 µM)
How it was run: as §1

[3] = compound: CCN(CCO)CCCC(C)Nc1ccnc2cc(Cl)ccc12 [Hydroxychloroquine] + C[C@]1(O)C[C@@H](c2nc(-c3ccc4ccc(-c5ccccc5)nc4c3)c3c(N)nccn32)C1 [Linsitinib] (partner 1 µM)
How it was run: as §1

[4] = compound: CCN(CCO)CCCC(C)Nc1ccnc2cc(Cl)ccc12 [Hydroxychloroquine] + Cc1nc(NC(=O)N2CCC[C@H]2C(N)=O)sc1-c1ccnc(C(C)(C)C(F)(F)F)c1 [Alpelisib] (partner 2 µM)
How it was run: as §1

| Cell Line | relative viability ([1]; first compound 0.5 µM) | relative viability ([1]; first compound 1.581 µM) | relative viability ([1]; first compound 5 µM) | relative viability ([1]; first compound 15.81 µM) | relative viability ([1]; first compound 50 µM) | relative viability ([2]; first compound 0.5 µM) | relative viability ([2]; first compound 1.581 µM) | relative viability ([2]; first compound 5 µM) | relative viability ([2]; first compound 15.81 µM) | relative viability ([2]; first compound 50 µM) | relative viability ([3]; first compound 0.5 µM) | relative viability ([3]; first compound 1.581 µM) | relative viability ([3]; first compound 5 µM) | relative viability ([3]; first compound 15.81 µM) | relative viability ([3]; first compound 50 µM) | relative viability ([4]; first compound 0.5 µM) | relative viability ([4]; first compound 1.581 µM) | relative viability ([4]; first compound 5 µM) | relative viability ([4]; first compound 15.81 µM) | relative viability ([4]; first compound 50 µM) |
| --- | --- | --- | --- | --- | --- | --- | --- | --- | --- | --- | --- | --- | --- | --- | --- | --- | --- | --- | --- | --- |
| 201T | 0.731 | 0.738 | 0.721 | 0.827 | 0.965 | 1.05 | 1.02 | 1.02 | 1.02 | 1.05 | 1.07 | 0.987 | 1.07 | 1 | 1.13 | 1.03 | 0.916 | 1.02 | 1.03 | 1.01 |
| A549 |  |  |  |  |  | 0.976 | 0.859 | 0.906 | 0.974 | 0.977 | 0.617 | 0.543 | 0.576 | 0.646 | 0.629 | 0.749 | 0.577 | 0.761 | 0.708 | 0.623 |
| A-427 | 0.486 | 0.308 | 0.387 | 0.412 | 0.424 | 0.996 | 0.955 | 1.07 | 1.01 | 1.09 | 1.13 | 1.05 | 1.13 | 1.09 | 1.16 | 1.06 | 1.03 | 1.04 | 0.956 | 1.1 |
| ABC-1 | 0.469 | 0.501 | 0.467 | 0.417 | 0.631 | 0.987 | 1.09 | 1.13 | 1.43 | 1.23 | 1 | 0.698 | 0.959 | 0.759 | 0.879 | 1.27 | 1.03 | 0.924 | 0.949 | 0.942 |
| BEN | 0.319 | 0.284 | 0.268 | 0.373 | 0.325 | 0.704 | 0.553 | 0.609 | 0.707 | 0.891 | 0.87 | 0.929 | 0.872 | 0.973 | 1.15 | 1.04 | 1.04 | 0.981 | 1.06 | 1.32 |
| CAL-12T | 0.97 | 0.8 | 0.633 | 0.684 | 0.687 | 0.752 |  | 0.659 | 0.633 | 0.691 | 0.916 | 0.75 | 0.773 | 0.866 | 0.886 | 1.24 | 1.16 | 1.32 | 1.42 | 1.69 |
| COR-L23 | 0.756 | 0.809 | 0.822 | 0.91 | 0.85 | 0.681 | 0.992 | 0.992 | 1.23 | 1.21 | 0.989 | 0.872 | 0.947 | 0.997 | 1.02 | 0.739 | 0.813 | 0.899 | 0.961 | 0.906 |
| COR-L 105 | 0.643 | 0.598 | 0.708 | 0.739 | 0.668 | 0.369 | 0.37 | 0.346 | 0.318 | 0.327 | 1.08 | 1 | 0.905 | 0.851 | 0.814 | 1.13 | 1 | 1.08 | 0.765 | 0.87 |
| Calu-6 |  |  |  |  |  | 1.05 | 1.18 | 0.991 | 1.02 | 1.01 | 0.864 | 0.881 | 1.11 | 0.938 | 0.942 | 1.01 | 0.881 | 0.896 | 0.939 | 0.924 |
| ChaGo-K-1 | 0.688 | 0.675 | 0.498 | 0.53 | 0.609 |  |  |  |  |  |  |  |  |  |  |  |  |  |  |  |
| EBC-1 |  |  |  |  |  | 0.212 | 0.183 | 0.213 | 0.225 | 0.182 | 0.953 | 0.505 | 0.992 | 0.769 | 0.915 | 1.01 | 0.572 | 0.784 | 0.688 | 0.599 |
| EKVX | 0.797 | 0.851 | 0.79 | 0.758 | 0.776 | 0.246 | 0.181 | 0.224 | 0.168 | 0.199 | 0.929 | 1.01 | 1.09 | 0.955 | 1.05 | 0.964 | 0.867 | 0.844 | 0.846 | 0.912 |
| EMC-BAC-2 | 0.376 | 0.324 | 0.381 | 0.368 | 0.365 | 0.96 | 0.722 | 0.897 | 0.832 | 0.956 | 0.817 | 0.772 | 0.87 | 0.82 | 0.852 | 0.736 | 0.708 | 0.767 | 0.727 | 0.75 |
| EPLC-272H | 0.249 | 0.232 | 0.276 | 0.252 | 0.314 | 0.988 | 0.879 | 0.77 | 0.877 | 1.06 | 1.13 | 1 | 1.2 | 1.12 | 1.25 | 0.928 | 0.858 | 0.94 | 0.998 | 0.919 |
| H3255 | 0.653 | 0.524 | 0.569 | 0.6 | 0.665 | 0.272 | 0.243 | 0.205 | 0.248 | 0.202 | 0.946 | 0.999 | 0.976 | 0.944 | 0.982 | 0.759 | 0.612 | 0.727 | 0.675 | 0.72 |
| HARA | 0.608 | 0.416 | 0.469 | 0.486 | 0.435 | 0.712 | 0.731 | 0.597 | 0.765 | 0.635 | 1.01 | 0.993 | 0.996 | 0.997 | 0.913 | 0.763 | 0.856 | 0.863 | 0.805 | 0.841 |
| HCC-15 | 0.754 | 0.672 | 0.634 | 0.656 | 0.724 | 0.847 | 0.812 | 0.873 | 0.867 | 0.836 | 0.815 | 0.861 | 0.879 | 0.912 | 0.898 | 0.925 | 0.841 | 0.839 | 0.879 | 0.909 |
| HCC-44 | 0.504 | 0.418 | 0.43 | 0.511 | 0.547 | 0.989 | 1.07 | 1.08 | 1.06 | 1.04 | 0.634 | 0.682 | 0.723 | 0.748 | 0.774 | 0.815 | 0.838 | 0.86 | 0.922 | 0.902 |
